Experimental data as given in ChEMBL document CHEMBL3885861, “Open TG-GATES”.

Species on record: Rattus norvegicus
Assay: Open TG-GATES - Regimen: Single
Assay type: toxicity, organism-based, Sprague-Dawley
Parameters: regimen Single, gender Male, age 6 weeks
Conditions: in vivo, po, route gavage; for gamma-GTP / ALP / ALT / AST / BUN / CRE / Ca / DBIL / GLC / IP / K / LDH / Na / PL / RALB / TBIL / TC / TG / TP: tissue Plasma; for APTT / Bas / Eos / Fbg / Hb / Ht / Lym / MCH / MCHC / MCV / Mono / Neu / PT / Plat / RBC / Ret / WBC: tissue Blood; for KIDNEY_L / KIDNEY_R / KIDNEY_TOTAL: tissue Kidney; for LIVER: tissue Liver

Structure (SMILES): CSc1ccc2c(c1)N(CCC1CCCCN1C)c1ccccc1S2 (stereo not drawn) [THIORIDAZINE]
- gamma-GTP (0 mg/kg, 24 h, dose level Control): 1.2 IU/L
- TERMINAL_BW (10 mg/kg, 3 h, dose level Low): 216.5 g
- APTT (10 mg/kg, 3 h, dose level Low): 16.2 s
- Bas (10 mg/kg, 3 h, dose level Low): 0%
- Eos (10 mg/kg, 3 h, dose level Low): 0.6%
- Fbg (10 mg/kg, 3 h, dose level Low): 201 mg/dL
- Hb (10 mg/kg, 3 h, dose level Low): 12.6 g/dL
- Ht (10 mg/kg, 3 h, dose level Low): 37.5%
- Lym (10 mg/kg, 3 h, dose level Low): 77%
- MCH (10 mg/kg, 3 h, dose level Low): 22.5 pg
- MCHC (10 mg/kg, 3 h, dose level Low): 33.6%
- MCV (10 mg/kg, 3 h, dose level Low): 67.1 fL
- Mono (10 mg/kg, 3 h, dose level Low): 9.8%
- Neu (10 mg/kg, 3 h, dose level Low): 13%
- PT (10 mg/kg, 3 h, dose level Low): 12.2 s
- Plat (10 mg/kg, 3 h, dose level Low): 94.9 x10_4/uL
- RBC (10 mg/kg, 3 h, dose level Low): 560.4 x10_4/ul
- Ret (10 mg/kg, 3 h, dose level Low): 8%
- WBC (10 mg/kg, 3 h, dose level Low): 87.7 x10_2/uL
- KIDNEY_L (10 mg/kg, 3 h, dose level Low): 1 g
- KIDNEY_R (10 mg/kg, 3 h, dose level Low): 1 g
- KIDNEY_TOTAL (10 mg/kg, 3 h, dose level Low): 2 g
- LIVER (10 mg/kg, 3 h, dose level Low): 10.5 g
- ALP (10 mg/kg, 3 h, dose level Low): 973.8 IU/L
- ALT (10 mg/kg, 3 h, dose level Low): 36.8 IU/L
- AST (10 mg/kg, 3 h, dose level Low): 65.4 IU/L
- BUN (10 mg/kg, 3 h, dose level Low): 13.2 mg/dL
- CRE (10 mg/kg, 3 h, dose level Low): 0.5 mg/dL
- Ca (10 mg/kg, 3 h, dose level Low): 11.2 mg/dL
- DBIL (10 mg/kg, 3 h, dose level Low): 0.016 mg/dL
- GLC (10 mg/kg, 3 h, dose level Low): 205.6 mg/dL
- IP (10 mg/kg, 3 h, dose level Low): 10.7 mg/dL
- K (10 mg/kg, 3 h, dose level Low): 5.1 meq/L
- LDH (10 mg/kg, 3 h, dose level Low): 95 IU/L
- Na (10 mg/kg, 3 h, dose level Low): 139.4 meq/L
- PL (10 mg/kg, 3 h, dose level Low): 140.2 mg/dL
- RALB (10 mg/kg, 3 h, dose level Low): 3.7 g/dL
- TBIL (10 mg/kg, 3 h, dose level Low): 0.3 mg/dL
- TC (10 mg/kg, 3 h, dose level Low): 76.8 mg/dL
- TG (10 mg/kg, 3 h, dose level Low): 69.2 mg/dL
- TP (10 mg/kg, 3 h, dose level Low): 5.3 g/dL
- gamma-GTP (10 mg/kg, 3 h, dose level Low): 0.8 IU/L
- TERMINAL_BW (10 mg/kg, 6 h, dose level Low): 214.5 g
- APTT (10 mg/kg, 6 h, dose level Low): 16.8 s
- Bas (10 mg/kg, 6 h, dose level Low): 0%
- Eos (10 mg/kg, 6 h, dose level Low): 1%
- Fbg (10 mg/kg, 6 h, dose level Low): 210.6 mg/dL
- Hb (10 mg/kg, 6 h, dose level Low): 13.1 g/dL
- Ht (10 mg/kg, 6 h, dose level Low): 39%
- Lym (10 mg/kg, 6 h, dose level Low): 78.8%
- MCH (10 mg/kg, 6 h, dose level Low): 22 pg
- MCHC (10 mg/kg, 6 h, dose level Low): 33.5%
- MCV (10 mg/kg, 6 h, dose level Low): 65.8 fL
- Mono (10 mg/kg, 6 h, dose level Low): 8.6%
- Neu (10 mg/kg, 6 h, dose level Low): 12%
- PT (10 mg/kg, 6 h, dose level Low): 12.2 s
- Plat (10 mg/kg, 6 h, dose level Low): 109 x10_4/uL
- RBC (10 mg/kg, 6 h, dose level Low): 593 x10_4/ul
- Ret (10 mg/kg, 6 h, dose level Low): 8.6%
- WBC (10 mg/kg, 6 h, dose level Low): 129.7 x10_2/uL
- KIDNEY_L (10 mg/kg, 6 h, dose level Low): 1 g
- KIDNEY_R (10 mg/kg, 6 h, dose level Low): 1 g
- KIDNEY_TOTAL (10 mg/kg, 6 h, dose level Low): 2 g
- ALP (10 mg/kg, 6 h, dose level Low): 779.8 IU/L
- ALT (10 mg/kg, 6 h, dose level Low): 27.6 IU/L
- AST (10 mg/kg, 6 h, dose level Low): 62.4 IU/L
- BUN (10 mg/kg, 6 h, dose level Low): 11.8 mg/dL
- CRE (10 mg/kg, 6 h, dose level Low): 0.5 mg/dL
- Ca (10 mg/kg, 6 h, dose level Low): 10.8 mg/dL
- DBIL (10 mg/kg, 6 h, dose level Low): 0.022 mg/dL
- GLC (10 mg/kg, 6 h, dose level Low): 192.4 mg/dL
- IP (10 mg/kg, 6 h, dose level Low): 10.2 mg/dL
- K (10 mg/kg, 6 h, dose level Low): 4.9 meq/L
- LDH (10 mg/kg, 6 h, dose level Low): 94 IU/L
- Na (10 mg/kg, 6 h, dose level Low): 138.8 meq/L
- PL (10 mg/kg, 6 h, dose level Low): 136.4 mg/dL
- RALB (10 mg/kg, 6 h, dose level Low): 3.7 g/dL
- TBIL (10 mg/kg, 6 h, dose level Low): 0.4 mg/dL
- TC (10 mg/kg, 6 h, dose level Low): 71.6 mg/dL
- TG (10 mg/kg, 6 h, dose level Low): 60.2 mg/dL
- TP (10 mg/kg, 6 h, dose level Low): 5.4 g/dL
- gamma-GTP (10 mg/kg, 6 h, dose level Low): 3.2 IU/L
- TERMINAL_BW (10 mg/kg, 9 h, dose level Low): 213.3 g
- APTT (10 mg/kg, 9 h, dose level Low): 16.6 s
- Bas (10 mg/kg, 9 h, dose level Low): 0%
- Eos (10 mg/kg, 9 h, dose level Low): 1%
- Fbg (10 mg/kg, 9 h, dose level Low): 209.6 mg/dL
- Hb (10 mg/kg, 9 h, dose level Low): 12.7 g/dL
- Ht (10 mg/kg, 9 h, dose level Low): 38.5%
- Lym (10 mg/kg, 9 h, dose level Low): 72.4%
- MCH (10 mg/kg, 9 h, dose level Low): 21.3 pg
- MCHC (10 mg/kg, 9 h, dose level Low): 33.1%
- MCV (10 mg/kg, 9 h, dose level Low): 64.5 fL
- Mono (10 mg/kg, 9 h, dose level Low): 6.4%
- Neu (10 mg/kg, 9 h, dose level Low): 20.6%
- PT (10 mg/kg, 9 h, dose level Low): 12.3 s
- Plat (10 mg/kg, 9 h, dose level Low): 105.4 x10_4/uL
- RBC (10 mg/kg, 9 h, dose level Low): 598.2 x10_4/ul
- Ret (10 mg/kg, 9 h, dose level Low): 8.1%
- WBC (10 mg/kg, 9 h, dose level Low): 80.7 x10_2/uL
- KIDNEY_L (10 mg/kg, 9 h, dose level Low): 1 g
- KIDNEY_R (10 mg/kg, 9 h, dose level Low): 1 g
- KIDNEY_TOTAL (10 mg/kg, 9 h, dose level Low): 2.1 g
- LIVER (10 mg/kg, 9 h, dose level Low): 9.6 g
- ALP (10 mg/kg, 9 h, dose level Low): 749.8 IU/L
- ALT (10 mg/kg, 9 h, dose level Low): 29.4 IU/L
- AST (10 mg/kg, 9 h, dose level Low): 64.4 IU/L
- BUN (10 mg/kg, 9 h, dose level Low): 11.2 mg/dL
- CRE (10 mg/kg, 9 h, dose level Low): 0.6 mg/dL
- Ca (10 mg/kg, 9 h, dose level Low): 10.8 mg/dL
- DBIL (10 mg/kg, 9 h, dose level Low): 0.034 mg/dL
- GLC (10 mg/kg, 9 h, dose level Low): 195.4 mg/dL
- IP (10 mg/kg, 9 h, dose level Low): 10.7 mg/dL
- K (10 mg/kg, 9 h, dose level Low): 5.1 meq/L
- LDH (10 mg/kg, 9 h, dose level Low): 66.8 IU/L
- Na (10 mg/kg, 9 h, dose level Low): 140 meq/L
- PL (10 mg/kg, 9 h, dose level Low): 142.2 mg/dL
- RALB (10 mg/kg, 9 h, dose level Low): 3.8 g/dL
- TBIL (10 mg/kg, 9 h, dose level Low): 0.4 mg/dL
- TC (10 mg/kg, 9 h, dose level Low): 77.4 mg/dL
- TG (10 mg/kg, 9 h, dose level Low): 31.4 mg/dL
- TP (10 mg/kg, 9 h, dose level Low): 5.3 g/dL
- gamma-GTP (10 mg/kg, 9 h, dose level Low): 1.6 IU/L
- TERMINAL_BW (10 mg/kg, 24 h, dose level Low): 232.6 g
- APTT (10 mg/kg, 24 h, dose level Low): 16.5 s
- Bas (10 mg/kg, 24 h, dose level Low): 0%
- Eos (10 mg/kg, 24 h, dose level Low): 1%
- Fbg (10 mg/kg, 24 h, dose level Low): 215.4 mg/dL
- Hb (10 mg/kg, 24 h, dose level Low): 13 g/dL
- Ht (10 mg/kg, 24 h, dose level Low): 39.1%
- Lym (10 mg/kg, 24 h, dose level Low): 80.4%
- MCH (10 mg/kg, 24 h, dose level Low): 21.8 pg
- MCHC (10 mg/kg, 24 h, dose level Low): 33.3%
- MCV (10 mg/kg, 24 h, dose level Low): 65.3 fL
- Mono (10 mg/kg, 24 h, dose level Low): 6.6%
- Neu (10 mg/kg, 24 h, dose level Low): 11.8%
- PT (10 mg/kg, 24 h, dose level Low): 12.2 s
- RBC (10 mg/kg, 24 h, dose level Low): 599.2 x10_4/ul
- Ret (10 mg/kg, 24 h, dose level Low): 8.2%
- WBC (10 mg/kg, 24 h, dose level Low): 132.3 x10_2/uL
- KIDNEY_L (10 mg/kg, 24 h, dose level Low): 1 g
- KIDNEY_R (10 mg/kg, 24 h, dose level Low): 1 g
- KIDNEY_TOTAL (10 mg/kg, 24 h, dose level Low): 2 g
- LIVER (10 mg/kg, 24 h, dose level Low): 11.9 g
- ALP (10 mg/kg, 24 h, dose level Low): 799.2 IU/L
- ALT (10 mg/kg, 24 h, dose level Low): 39.6 IU/L
- AST (10 mg/kg, 24 h, dose level Low): 68.6 IU/L
- BUN (10 mg/kg, 24 h, dose level Low): 19 mg/dL
- CRE (10 mg/kg, 24 h, dose level Low): 0.5 mg/dL
- Ca (10 mg/kg, 24 h, dose level Low): 11.3 mg/dL
- DBIL (10 mg/kg, 24 h, dose level Low): 0.074 mg/dL
- GLC (10 mg/kg, 24 h, dose level Low): 193.6 mg/dL
- IP (10 mg/kg, 24 h, dose level Low): 8.7 mg/dL
- K (10 mg/kg, 24 h, dose level Low): 4.9 meq/L
- LDH (10 mg/kg, 24 h, dose level Low): 77.4 IU/L
- Na (10 mg/kg, 24 h, dose level Low): 138.2 meq/L
- PL (10 mg/kg, 24 h, dose level Low): 154.8 mg/dL
- RALB (10 mg/kg, 24 h, dose level Low): 4 g/dL
- TBIL (10 mg/kg, 24 h, dose level Low): 0.4 mg/dL
- TC (10 mg/kg, 24 h, dose level Low): 81 mg/dL
- TG (10 mg/kg, 24 h, dose level Low): 116.8 mg/dL
- TP (10 mg/kg, 24 h, dose level Low): 5.8 g/dL
- gamma-GTP (10 mg/kg, 24 h, dose level Low): 1.4 IU/L
